Test results reported in PubChem BioAssay (NCI).
Where “and” joins values, the source holds several entries; their conditions need not be identical. Equal values may be shown once.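 Exposure lasted 48 hours, with cells grown in 96-well plates and compounds tested at five concentrations. GI50 = concentration required for 50% inhibition of growth. TGI denotes the concentration required for complete inhibition of growth.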

Columns and labels:
Assay in all cases: NCI tumour cell line growth inhibition, 48 h
[1] = test system: M19-MEL melanoma
[2] = test system: KM20L2 colon
[3] = test system: SNB-78 CNS
[4] = test system: DMS 114 small cell lung
[5] = test system: LXFL 529 NSCLC
[6] = test system: HOP-18 NSCLC
[7] = test system: DLD-1 colon
[8] = test system: DMS 273 small cell lung
[9] = test system: P388/ADR leukemia
[10] = test system: P388 leukemia
[11] = test system: SN12K1 renal
[12] = test system: RXF-631 renal

Row | SMILES | TGI [1] | TGI [2] | TGI [3] | TGI [4] | TGI [5] | TGI [6] | TGI [7] | TGI [8] | TGI [9] | TGI [10] | TGI [11] | GI50 [9] | GI50 [6] | GI50 [8] | GI50 [3] | GI50 [11] | GI50 [10] | GI50 [2] | TGI [12]
1 | COC1CCC(CO)OO1 (configuration not stated) | > 100 µM | > 100 µM | 66.9 µM | 36.6 µM | > 100 µM | – | – | – | – | – | – | – | – | – | – | – | – | – | –
2 | COC(=O)c1c(CC(=O)OC(C)C)cc2n(c1=O)Cc1c-2nc2ccccc2c1OC | > 100 µM | > 100 µM | – | > 100 µM | > 100 µM | > 100 µM | > 100 µM | > 100 µM | – | – | – | – | – | – | – | – | – | – | –
3 | CN1Cc2ccccc2C2(COc3ccccc3C2=O)C1 (configuration not stated) | > 100 µM | > 100 µM | > 100 µM | > 100 µM | > 100 µM | > 100 µM | > 100 µM | > 100 µM | – | – | – | – | – | – | – | – | – | – | –
4 | N/C(=N\N=C/c1c(O)cc(O)cc1O)NO | > 100 µM | > 100 µM | > 100 µM | > 100 µM | – | > 100 µM | > 100 µM | > 31.6 µM | > 100 µM | > 100 µM | > 100 µM | – | – | – | – | – | – | – | –
5 | NCCCNCCSP(=O)(O)O | > 750 µM | > 750 µM | > 750 µM | > 750 µM | – | > 750 µM | > 750 µM | > 750 µM | > 750 µM | > 750 µM | > 750 µM | – | – | – | – | – | – | – | –
6 | C/C(N=NS(=O)(=O)c1c(C)cc(C)cc1C)=C1\C=CC=CN1O | > 100 µM | > 100 µM | > 100 µM | > 100 µM | > 100 µM | > 100 µM | > 100 µM | > 100 µM | – | – | – | – | – | – | – | – | – | – | –
7 | CC(C)=CC(=O)OC1C2C(C)=CC(=O)C(O)C2(C)C2C3(O)OCC24C(CC(=O)OC14)C(C)C3O (configuration not stated) | 0.0252 µM and 0.027 µM | 0.197 µM and 0.153 µM | 0.36 µM and 0.153 µM | – | – | 0.689 µM and 0.493 µM | 0.221 µM and 0.554 µM | 0.0122 µM and 0.0241 µM | 0.575 µM and 0.84 µM | 0.00568 µM | 0.0169 µM and 0.0213 µM | 0.181 µM | 0.192 µM and 0.0777 µM | 0.02 µM | 0.0575 µM | 0.00412 µM | – | – | –
8 | CCN(CC)CC[n+]1ccc2c(C)c3[nH]c4ccccc4c3c(C)c2c1 | 0.762 µM and 2 µM | 1.51 µM and 6.24 µM | 1.49 µM and 7.14 µM | – | – | 4.82 µM and 7.88 µM | 13.5 µM and 14.6 µM | 1.53 µM and 1.74 µM | > 100 µM and 125 µM | 1.41 µM and 4.27 µM | 1.18 µM and 1.8 µM | – | 0.901 µM and 1.91 µM | – | 0.293 µM and 1.17 µM | 0.268 µM | 0.0448 µM and 0.024 µM | 0.27 µM and 0.782 µM | –
9 | CSCSCC(CO)NC(=O)/C=C\c1c(C)[nH]c(=O)[nH]c1=O (configuration not stated) | 111 µM | 129 µM | 260 µM | 66.5 µM | – | 267 µM | 160 µM | 267 µM | 332 µM | 164 µM | 84.9 µM | – | – | – | 30.9 µM | – | – | – | –
10 | CN1COCN=C1NC#N | > 100 µM | > 100 µM | > 100 µM | > 100 µM | > 100 µM | > 100 µM | > 100 µM | – | – | – | – | – | – | – | – | – | – | – | > 100 µM
11 | C=C1C(=O)OC2C[C@@]3(C)CCCC(=C)C3CC12 (some centres not stated) | – | 25.9 µM | 13.5 µM | 29.8 µM | 11.8 µM | 31.3 µM | 14.7 µM | 10.7 µM | – | – | – | – | – | – | – | – | – | – | –
